# Laboratory results from US7338778B2, “Luminescent method for determining cell oxygen consumption” (Becton, Dickinson and Company, priority 1991, dated 2008).
# pIC50: −log10 of the molar value.
# What was measured:
# [1] = system: Pseudomonas aeruginosa (ATCC #10145); settings: 1.5×10^8 CFU/ml, 37° C., times less than two hours
# Protocol: A suspension containing about 3×10^8 CFU/ml, of Pseudomonas aeruginosa (ATCC #10145) in Broth A was prepared using an A-Just nephelometer. A total of 150 ul of the suspension was placed in each well of the indicator trays prepared as in Example 1; these suspensions were then diluted with solutions of phenol or copper sulfate (which are deleterious to microbial growth) to a final concentration of 1.5×10^8 CFU/ml. The trays were incubated at 37° C. and their fluorescence measured in a Fluoroskan II at 10 minute intervals.
# [2] = system: E. coli (ATCC #25922); experiment: Effect of antibiotics on E. coli, Ru(DPP)3Cl2 indicator tray (Example 8); type: cell-based; settings: for susceptibility of E. coli by fluorescence counts: 4 hours; for Relative Fluorescence at 4 hrs.: 1×10^7 CFU/ml, 37° C.
# Protocol: (§1) A 0.5 McFarland suspension of E. coli (ATCC #25922) in Broth A (see Example 1) was prepared using an A-Just nephelometer. […] The trays were incubated at 37° C. for 4 hours and their fluorescence measured in a Fluoroskan II fluorometer.
# The fluorescent compound tris 4,7-diphenyl-1,10-phenanthroline ruthenium (II) chloride (Ru(DPP)3Cl2) was synthesized using the procedure of Watts and Crosby (J. Am.Chem. Soc. 93, 3184(1971)). A total of 3.6 mg of the compound was dissolved in 2.0 ml dimethyl sulfoxide (D-5879, Sigma Chemical, St. Louis, Mo.) and the resultant solution was then added slowly, with stirring, to 1300 ml silicone rubber forming solution (Water Based Emulsion #3-5024, Dow Corning, Midland, Mich.). A 35 microliter aliquot of the mixture was subsequently dispensed into each well of a 96 well, flat bottom, white microtiter tray (#011-010-7901, Dynatech, Chantilly, Va.), and the system was subsequently cured overnight in a low humidity (less than 25% RH), 60° C. incubator. After curing, the trays were washed by either soaking or by filling and emptying each well several times with each of the following reagents; a) absolute ethanol, b) 0.1 M phosphate buffer pH 7.2, c) hot distilled water (about 45° C.) and d) ambient temperature distilled water.
# [3] = system: E. coli (ATCC #25922); experiment: Effect of antibiotics on oxygen consumption of E. coli, DPA indicator tray (Example 10); type: cell-based; settings: for susceptibility of E. coli by fluorescence counts: 4 hours; for Relative Fluorescence at 4 hrs.: 1×10^7 CFU/ml, 37° C.
# [4] = system: Ps. aeruginosa (BDMS Culture collection #N111); experiment: Visual reading of indicator tray fluorescence without a fluorometer (Example 13); type: cell-based; settings: 1×10^7 CFU/ml, 4 hours at 37° C., UV transilluminator
# Protocol: (§2) The trays were incubated for 4 hours at 37° C. and subsequently placed on the stage of an ultraviolet transilluminator (#TX-365A, Spectronics Corp., Westbury, N.Y.) which served as an excitation source.
# [5] = system: E. coli (ATCC #25922); experiment: as above; type: cell-based; settings: E. coli #25922, 1×10^7 CFU/ml, 4 hours at 37° C., UV transilluminator
# Protocol: as §2
# [6] = system: E. coli (ATCC #25922); experiment: Overnight microdilution antimicrobial susceptibility test (reference MIC); type: cell-based; settings: Escherichia coli, ATCC25922; E. coli #25922, overnight microdilution
# [7] = system: Ps. aeruginosa (BDMS Culture collection #N111); experiment: as above; type: cell-based; settings: Pseudomonas aeruginosa
# [8] = system: E. coli (ATCC #25922); experiment: Effect of antibiotics on oxygen consumption of E. coli, Ru(BiPy)3Cl2 indicator tray (Example 9); type: cell-based; settings: for susceptibility of E. coli by fluorescence counts: 4 hours; for Relative Fluorescence at 4 hrs.: 1×10^7 CFU/ml, 37° C.
# Protocol: A 96 well Microtiter tray was produced essentially as in Example 1, except that tris-(2,2′ bipyridyl)-ruthenium (II) chloride hexahydrate (Aldrich Chemical Company, Milwaukee, Wis.) [Ru(BiPy)3Cl2] was substituted for Ru(DPP)3Cl2 in the silicone mixture. A second tray containing 9,10-diphenyl anthracene (DPA) was also prepared. All wells were charged with 150 ul of 1×10^7 CFU/ml E. coli (ATCC #25922) in broth. Table 3 lists the results at 0, 1, 2, 3, and 4 hours after addition of organisms.
# as §1
# [9] = system: HL60 cells; experiment: Cytotoxicity assay in oxygen sensor plates; type: cell-based; settings: Homo sapiens, HL-60, HL60 cells, read-out: IC50 O2 Sensor
# Protocol: Oxygen sensor plates were prepared by the general methods described herein. Falcon 1177 polystyrene 96 well U-bottom plates (BD Labware) were used for all experiments. The fluorescent dye Ru(DPP)3Cl2 was adsorbed to silica gel by rotary evaporation of ethanolic solutions of the dye with the silica gel. The adsorbed dye-silica and a moisture-cure clear silicone were mixed manually and immediately applied to plate wells with approximately 17 uL silicone per well. These were cured for 2-3 days in a controlled humidity incubator.
# All data was obtained with a BMG Polarstar fluorimeter at 37° C. using the bottom plate reading configuration. The bandpass filters were 465 nm for excitation and 590 nm for emission. For the experiments with […]®, a Cytofluor 4000 fluorometer was used with a 485 nm excitation filter and a 580 nm emission filter. Data was read at selected time intervals. Normalized fluorescence data was generally obtained by dividing well values at selected time points by the same well's initial reading with only media or buffer present prior to adding cells.
# Cells used for cytotoxicity and quantitation experiments (HL60, U937; ATCC) were grown in tissue culture media recommended by the supplier (RPMI; Gibco and ATCC, respectively). The media was supplemented with either 20% fetal bovine serum (Hyclone) for the HL60 cells or 10% FBS for the U937 cells, with the addition of penicillin, streptomycin and fungizone (Gibco) to prevent microbial contamination. Cells were maintained in a tissue culture incubator (37° C., 5% CO2, 95% humidity) during all experiments between readings.
# HL60 cells (human promyelocytic leukemia cell line, ATCC #45500) were grown in tissue culture media recommended by the supplier (RPMI; Gibco), supplemented with 20% fetal bovine serum, heat inactivated at 50° C. for thirty minutes with the addition of penicillin, streptomycin and fungizone (Gibco) to prevent microbial contamination. Cells were maintained in tissue culture incubator (37° C., 5% CO2, 95% humidity) during all experiments. Fluorescence of the oxygen sensor was read on a Polarstar™ fluorometer (BMG), using 465 nm excitation and 590 nm emission filters.
# 100 uL of tissue culture media was aliquoted into the wells of the Oxygen sensor plate and plate was allowed to equilibrate in the tissue culture incubator for 1 hour prior to taking the initial reading. This reading was used to normalize all subsequent readings to account for well to well variability. Cells were resuspended in fresh media at 960,000 cells/mi. Serial 1:2 dilution of this stock was performed and 100 uL of each dilution was alliquoted across the length of the plate in replicates of 12 (rows B-H), with final cell/well number from 1,500 to 96,000. In row A, 100 uL of tissue culture media was alliquoted into the wells in lieu of cells (no-cells control). Fluorescence measurements were taken every 24 hours over 5 days. The actual number of cells present was counted with a hemocytometer by sampling the parallel well (same seeding cell number). Mean fluorescence from 5 wells per data point (n=5) was plotted against the counted cell number (FIG. 10). Error bars are standard deviation of the mean.
# The experiment was performed as described in Example 18, with the following exceptions. Serial dilutions of vinblastine were prepared at twice the final concentration (100 nM to 0.1 nM) in tissue culture media.100 uL of the drug dilution in tissue culture media was aliquoted across the width of the plate in replicates of five, reserving one column for no-drug (media only) control. After an initial reading, a constant number of cells (200,000/well) in 100 uL media were added to each well of rows A-E of the oxygen sensor plate, reserving rows F-H for no-cells control. Fluorescence was read at the indicated times. Mean fluorescence from 5 wells per data point (n=5) was plotted against vinblastine concentration (FIG. 12).
# [10] = system: HL60 cells; experiment: Cytotoxicity assay by MTT; type: cell-based; settings: Homo sapiens, HL-60, HL60 cells, read-out: IC50 MTT
# Protocol: In parallel with the oxygen sensor assays, MTT assays were performed using a Cell Titer Kit™ (Promega), as in Example 20, with the following exceptions. For each time point (corresponding to oxygen sensor assay time point), one flat-bottom 96 well microtiter plate (Falcon) was used. 50 uL of drug dilution in tissue culture media was used for initial reading and cells were suspended in 50 uL media, to the final volume of 100 uL. At indicated time points, 10 uL of MTT reagent was added per well for 1 hour, after which 100 uL of the stop/lysis buffer was added. Plates were sealed with Parafilm™ and cell lysis occurred overnight. Absorbance (570 nm corrected by absorbance at 750 nm) was read using a Thermomax Microplate Reader (Molecular Devices). Mean absorbance from 5 wells per data point, with standard deviation as error bars, was plotted against vinblastine concentration (FIG. 13).
# These experiments was performed as described in Example 20, with the exception that appropriate dilutions of the above reagents were substituted for vinblastine: 0.01 nM to 10000 nM methotrexate, 0.00001 to 10 mM sodium azide, and 2 to 2000 uM SDS respectively.
# [11] = all concentrations (0.5 to 8 ug/ml)
structure (smiles),measurement,setting,value
Oc1ccccc1 [phenol],concentration at which wells had no increase in fluorescence signal (absence of actively metabolizing organisms),[1],≥ 1 gram/liter
"CO[C@@]1(NC(=O)Cc2cccs2)C(=O)N2C(C(=O)O)=C(COC(N)=O)CS[C@@H]21 [Cefoxitin, cefoxitin]",susceptibility of E. coli by fluorescence counts,"[2]; 0.5, 1, and 2 ug/ml",resistant
same,susceptibility of E. coli by fluorescence counts,[2]; 4 and 8 ug/ml,sensitive
same,Relative Fluorescence at 4 hrs.,[2]; antibiotic 0.5 ug/mL,8181
same,Relative Fluorescence at 4 hrs.,[2]; antibiotic 1 ug/mL,8270
same,Relative Fluorescence at 4 hrs.,[2]; antibiotic 2 ug/mL,7120
same,Relative Fluorescence at 4 hrs.,[2]; antibiotic 4 ug/mL,3692
same,Relative Fluorescence at 4 hrs.,[2]; antibiotic 8 ug/mL,2974
same,susceptibility of E. coli by fluorescence counts,"[3]; 0.5, 1, 2 ug/ml",resistant
same,susceptibility of E. coli by fluorescence counts,[3]; 4 and 8 ug/ml,sensitive
same,Relative Fluorescence at 4 hrs.,[3]; antibiotic 0.5 ug/mL,192
same,Relative Fluorescence at 4 hrs.,[3]; antibiotic 1 ug/mL,173
same,Relative Fluorescence at 4 hrs.,[3]; antibiotic 2 ug/mL,164
same,Relative Fluorescence at 4 hrs.,[3]; antibiotic 4 ug/mL,101
same,Relative Fluorescence at 4 hrs.,[3]; antibiotic 8 ug/mL,95
same,MIC Visual (lowest concentration of antibiotic to significantly lower the fluorescent emissions),[4],>64 µg/mL
same,MIC Visual (lowest concentration of antibiotic to significantly lower the fluorescent emissions),[5],8 µg/mL
same,MIC,[6],4 µg/mL
same,MIC,[7],> 64 µg/mL
same,susceptibility of E. coli by fluorescence counts,"[8]; 0.5, 1, and 2 ug/ml",resistant
same,susceptibility of E. coli by fluorescence counts,[8]; 4 and 8 ug/ml,sensitive
same,Relative Fluorescence at 4 hrs.,[8]; antibiotic 0.5 ug/mL,1171
same,Relative Fluorescence at 4 hrs.,[8]; antibiotic 1 ug/mL,1491
same,Relative Fluorescence at 4 hrs.,[8]; antibiotic 2 ug/mL,1338
same,Relative Fluorescence at 4 hrs.,[8]; antibiotic 4 ug/mL,832
same,Relative Fluorescence at 4 hrs.,[8]; antibiotic 8 ug/mL,559
"O=C(O)c1cn(C2CC2)c2cc(N3CCNCC3)c(F)cc2c1=O [Ciprofloxacin, ciprofloxacin]",susceptibility of E. coli by fluorescence counts,[2]; [11],sensitive
same,susceptibility of E. coli by fluorescence counts,[3]; [11],sensitive
same,susceptibility of E. coli by fluorescence counts,[8]; [11],sensitive
"CC[C@]1(O)C[C@@H]2CN(CCc3c([nH]c4ccccc34)[C@@](C(=O)OC)(c3cc4c(cc3OC)N(C)[C@H]3[C@@](O)(C(=O)OC)[C@H](OC(C)=O)[C@]5(CC)C=CCN6CC[C@]43[C@@H]65)C2)C1 [Vinblastine, vinblastine]",pIC50,[9]; 48 hours,7.96
same,pIC50,[9]; 72 hours,7.96
same,pIC50,[9]; 96 hours,8.05
same,pIC50,[9]; 120 hours,8.05
same,pIC50,[10]; 48 hours,8.05
same,pIC50,[10]; 72 hours,8.10
same,pIC50,[10]; 96 hours,8.15
same,pIC50,[10]; 120 hours,8.19
